Experimental data from ChEMBL document CHEMBL2346546, “Hit identification of novel heparanase inhibitors by structure- and ligand-based approaches” (Bioorg Med Chem, 2013).
Calls of active or inactive are those of the source. The calls are words filed in the database; no cut-off is given here.

Assays:
Heparanase [1] = biological target: T1, Heparanase (Homo sapiens, UniProt Q9Y251); experiment: Binding affinity to recombinant heparanase catalytic stie (unknown origin) expressed in Escherichia coli BL21 (DE3) by surface plasmon resonance assay
T1 sequence (Q9Y251 whole entry): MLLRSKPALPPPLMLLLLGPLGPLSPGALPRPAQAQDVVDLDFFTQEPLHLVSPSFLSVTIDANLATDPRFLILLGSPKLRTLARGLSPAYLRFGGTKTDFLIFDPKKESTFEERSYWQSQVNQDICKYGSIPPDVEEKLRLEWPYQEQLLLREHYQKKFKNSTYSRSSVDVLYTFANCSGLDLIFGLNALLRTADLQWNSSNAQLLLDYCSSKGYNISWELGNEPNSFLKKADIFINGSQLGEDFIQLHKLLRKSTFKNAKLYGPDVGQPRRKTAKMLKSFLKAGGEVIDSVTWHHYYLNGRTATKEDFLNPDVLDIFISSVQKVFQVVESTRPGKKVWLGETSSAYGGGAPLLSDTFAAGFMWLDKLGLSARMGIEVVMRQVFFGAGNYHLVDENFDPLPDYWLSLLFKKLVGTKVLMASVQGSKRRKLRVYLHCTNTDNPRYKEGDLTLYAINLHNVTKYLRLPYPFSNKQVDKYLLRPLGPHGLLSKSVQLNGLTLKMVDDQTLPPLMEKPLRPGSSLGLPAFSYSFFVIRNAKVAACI

[2] = biological target: T2, Heparanase (Homo sapiens) (UniProt Q9Y251); experiment: Binding affinity to recombinant heparanase catalytic stie (unknown origin) expressed in Escherichia coli BL21 (DE3) by NMR analysis
T2 sequence (whole entry): T1 sequence (Q9Y251 whole entry)

Heparanase [3] = biological target: T1, Heparanase; experiment: Inhibition of recombinant heparanase catalytic stie (unknown origin) expressed in Escherichia coli BL21 (DE3)

Work on `CN(C)CCNCc1cc(NC(=O)CN2CCCCC2)cc(Nc2ccnc3cc(Cl)ccc23)c1` yielded a Kd (Heparanase [1]) of 639 µM.
For `COc1cc(N)c(Cl)cc1C(=O)NC1CCN(CCCOc2ccc(F)cc2)CC1OC` (stereo unspecified) [CISAPRIDE], the Kd (Heparanase [1]) was > 1000 µM and the Activity [2] was “Active”.
In the case of `CCN(CC)Cc1cc(Nc2ccnc3cc(Cl)ccc23)ccc1Br`, the Kd (Heparanase [1]) is reported as > 1000 µM.
`CCCCCCCCCCCCCCCC(=O)C1=C(O)[C@@H](CO)OC1=O` was tested, and the IC50 (Heparanase [3]) was 17 µM.
With `CCCCCCCCCCCCCCCc1cc(O[C@@H]2OC(C(=O)O)[C@H](O)[C@H](O)C2O)cc(O)c1C(=O)Oc1cc(C)c(C(=O)O)c(O)c1` (stereo partly specified) the IC50 (Heparanase [3]) was 10 µM.
`CCN(CC)Cc1cc(Nc2ccnc3cc(Cl)ccc23)ccc1O` was tested, and the Kd (Heparanase [1]) was 52.6 µM and the Activity [2] was “Active”.
In the case of `Clc1ccc2c(Nc3ccc(-c4ccco4)c(CN4CCCC4)c3)ccnc2c1`, the Kd (Heparanase [1]) is reported as > 1000 µM.
`O=C(CN1CCCCC1)Nc1cc(CN2CCC(O)CC2)cc(Nc2ccnc3cc(Cl)ccc23)c1` was tested, and the Kd (Heparanase [1]) was 1000 µM.
In the case of `CN(C)CCCNC(=O)c1cc(NC(=O)CN2CCCCC2)cc(Nc2ccnc3cc(Cl)ccc23)c1`, the Kd (Heparanase [1]) is reported as > 1000 µM.
With `CCCCCCCCCCCCCCCC(=O)C1=C(OC)[C@@H](CO)OC1=O` the IC50 (Heparanase [3]) was > 100 µM.
`CN1C[C@H](CNC(=O)OCc2ccccc2)C[C@@H]2c3cccc4c3c(cn4C)C[C@H]21` [METERGOLINE] was tested, and the Kd (Heparanase [1]) was > 1000 µM and the Activity [2] was “Active”.
`COc1ccc(CCN2CCC(Nc3nc4ccccc4n3Cc3ccc(F)cc3)CC2)cc1` [ASTEMIZOLE] was tested, and the Kd (Heparanase [1]) was > 1000 µM and the Activity [2] was “Active”.
`CCOc1ccc(Nc2ccnc3cc(Cl)ccc23)cc1CN1CCCC1` was tested, and the Kd (Heparanase [1]) was 169 µM.
`O=C(CN1CCCCC1)Nc1cc(Nc2ccnc3cc(Cl)ccc23)cc(C(=O)N2CCOCC2)c1` was tested, and the Kd (Heparanase [1]) was > 1000 µM.
In the case of `COc1ccc([C@@H]2CC(=O)c3c(O)cc(O[C@@H]4O[C@H](CO[C@@H]5O[C@@H](C)[C@H](O)[C@@H](O)[C@H]5O)[C@@H](O)[C@H](O)[C@H]4O)cc3O2)cc1O` [HESPERIDIN], the Kd (Heparanase [1]) is reported as > 1000 µM and the Activity [2] is reported as “Active”.
For `C[C@@H]1O[C@@H](O[C@H]2[C@H](Oc3cc(O)c4c(c3)O[C@H](c3ccc(O)cc3)CC4=O)O[C@H](CO)[C@@H](O)[C@@H]2O)[C@H](O)[C@H](O)[C@H]1O` [NARINGIN], the Kd (Heparanase [1]) was > 1000 µM and the Activity [2] was “Active”.
`O=C(O)c1ccccc1C(=O)c1ccc(Oc2ccccc2)c([N+](=O)[O-])c1` showed an IC50 (Heparanase [3]) of 1 µM.
Compound `CCN(CC)Cc1cc(Nc2ccnc3cc(Cl)ccc23)ccc1N1CCOCC1` has a Kd (Heparanase [1]) of 239 µM.
For `CC(CCc1ccccc1)NCC(O)c1ccc(O)c(C(N)=O)c1` (stereo unspecified) [LABETALOL], the Kd (Heparanase [1]) was 1000 µM and the Activity [2] was “Active”.
